Data as given in patent publication US6858589B2, “Methods of and compositions for potentiating the action of agents active on cell wall sites of the susceptible bacteria” (priority 1996, dated 2005).

What was measured:
E. coli NCTC 10418 [1] = experiment: Kill kinetics and regrowth of E. coli after gentamicin bolus pre-exposure followed by maintained cephazolin; type: cell-based, Escherichia coli; conditions: then cephazolin 0 mg/L
Text: In comparative experiments described in the examples herein, a reference strain of Escherichi coli (E. coli NCTC 10418) was exposed to constant concentrations of cephazolin in the culture medium (see FIGS. 1A and IIA).
(§1) The experimental work described herein involved testing bacterial response while changing aminoglycoside concentrations with time in the test tube, and mimics closely measurements made in man under clinical conditions (Bastone E B, Li S C, Ioannides-Demos L L, Spicer J., McLean A J, “Kill kinetics and regrowth patterns of E. coli exposed to gentamicin concentration-time profiles simulating in vivo bolus or infusion dosing”, Antimicrob Agents Chemother. 37:914-917, 1993).
The form of this profile is governed in vivo by distribution into tissue from the central circulation. In in vitro experiments, gentamicin was removed (T=0 time) by centrifugation and washing with antibiotic-free medium. The incubation was reconstituted with media containing 0 mg/l, 1 mg/l or 2 mg/l cephazolin (see FIG. IA).
In FIG. IB, it can be seen that the pattern of growth of control organisms (not exposed to antibiotic) is designated by the dotted line ( - - - ), while the growth patterns of test organisms are represented by the solid lines with symbols indicating each type of treatment or test (FIG. IB).

E. coli NCTC 10418 [2] = experiment: E. coli counts after gentamicin profile (peak 4 mg/l, then reconstituted maintained concentration); type: cell-based, Escherichia coli
Procedure: The aminoglycoside reached a peak concentration of 4 mg/l 30 minutes post-dose and was removed from the E. coli culture by washing. Medium containing 0, 2, 2.5 and 3 mg/l gentamicin was reconstituted and added to the culture at 1 hour after initial exposure to the aminoglycoside (n=6).
as §1
With each antibiotic, concentration-time profiles similar to those observed in the blood of clinical patients following conventional intravenous dosing of an aminoglycoside (gentamicin) and pump-driven profiles of gentamicin and cephalosporin (cephazolin) were attained. The concentration-time profiles for each drug class have the general form shown in FIG. IA and FIG. IIIA of the accompanying drawings. Additionally a gentamicin profile of the form shown in FIG. IIIA was generated, which reached a peak of 12 mg/l over 3 hours, was maintained at 12 mg/l for a further hour, then was reconstituted to a range of steady-state concentrations (0, 0.5, 1.0, 2.0, 3.0, 4.0 mg/l) to yield the experimental results shown in Table 4. […]

Question: gentamicin was tested. Which “BACTERIAL COUNTS” value (E. coli NCTC 10418 [1]; 8 mg/L bolus gentamicin, 2 h) did it give?
Answer: Its value is 1.32 ± 0.69 log10 cfu/mL.

Question: What about the “BACTERIAL COUNTS” value (E. coli NCTC 10418 [1]; 8 mg/L bolus gentamicin, 8 h) of the same substance?
Answer: Its value is 4.91 ± 0.70 log10 cfu/mL.

Question: What about the “BACTERIAL COUNTS” value (E. coli NCTC 10418 [1]; 8 mg/L bolus gentamicin, 24 h) of the same substance?
Answer: The value was 8.88 ± 0.11 log10 cfu/mL.

Question: What about the “BACTERIAL COUNTS” value (E. coli NCTC 10418 [1]; 8 mg/L bolus gentamicin, −0.5 h) of the same substance?
Answer: The value was 5.87 ± 0.35 log10 cfu/mL.

Question: And the “BACTERIAL COUNTS” value (E. coli NCTC 10418 [1]; 12 mg/L bolus gentamicin, 2 h)?
Answer: The value was 0.69 ± 0.87 log10 cfu/mL.

Question: What about the “BACTERIAL COUNTS” value (E. coli NCTC 10418 [1]; 12 mg/L bolus gentamicin, 8 h) of the same substance?
Answer: The value was 4.54 ± 1.15 log10 cfu/mL.

Question: What about the “BACTERIAL COUNTS” value (E. coli NCTC 10418 [1]; 12 mg/L bolus gentamicin, 24 h) of the same substance?
Answer: Its value is 8.80 ± 0.05 log10 cfu/mL.

Question: And the “BACTERIAL COUNTS” value (E. coli NCTC 10418 [1]; 12 mg/L bolus gentamicin, −0.5 h)?
Answer: The value was 6.10 ± 0.26 log10 cfu/mL.

Question: What about the “BACTERIAL COUNTS” value (E. coli NCTC 10418 [1]; 16 mg/L bolus gentamicin, 2 h) of the same substance?
Answer: The value was 0.48 ± 0.76 log10 cfu/mL.

Question: What about the “BACTERIAL COUNTS” value (E. coli NCTC 10418 [1]; 16 mg/L bolus gentamicin, 8 h) of the same substance?
Answer: The value was 3.85 ± 1.24 log10 cfu/mL.

Question: And the “BACTERIAL COUNTS” value (E. coli NCTC 10418 [1]; 16 mg/L bolus gentamicin, 24 h)?
Answer: Its value is 8.79 ± 0.05 log10 cfu/mL.

Question: What about the “BACTERIAL COUNTS” value (E. coli NCTC 10418 [1]; 16 mg/L bolus gentamicin, −0.5 h) of the same substance?
Answer: The value was 5.85 ± 0.050 log10 cfu/mL.

Question: What about the “BACTERIAL COUNTS” value (E. coli NCTC 10418 [1]; 20 mg/L bolus gentamicin, 2 h) of the same substance?
Answer: Its value is “NGD”.

Question: And the “BACTERIAL COUNTS” value (E. coli NCTC 10418 [1]; 20 mg/L bolus gentamicin, 8 h)?
Answer: The value was 3.15 ± 0.734 log10 cfu/mL.

Question: And the “BACTERIAL COUNTS” value (E. coli NCTC 10418 [1]; 20 mg/L bolus gentamicin, 24 h)?
Answer: Its value is 8.81 ± 0.04 log10 cfu/mL.

Question: What about the “BACTERIAL COUNTS” value (E. coli NCTC 10418 [1]; 20 mg/L bolus gentamicin, −0.5 h) of the same substance?
Answer: The value was 5.89 ± 0.03 log10 cfu/mL.

Question: What about the “BACTERIAL COUNTS” value (E. coli NCTC 10418 [2]; peak 4 mg/liter, reconstituted to 3.0 mg/liter at 1 hr, maintained 0 hr (control), 3 hr) of the same substance?
Answer: Its value is 3.05 ± 0.33 log ^10 (CFU/mL).

Question: And the “BACTERIAL COUNTS” value (E. coli NCTC 10418 [2]; peak 4 mg/liter, reconstituted to 3.0 mg/liter at 1 hr, maintained 0 hr (control), 11 hr)?
Answer: Its value is 8.89 ± 0.20 log ^10 (CFU/mL).

Question: What about the “BACTERIAL COUNTS” value (E. coli NCTC 10418 [2]; peak 4 mg/liter, reconstituted to 3.0 mg/liter at 1 hr, maintained 0 hr (control), 25 hr) of the same substance?
Answer: Its value is 9.07 ± 0.12 log ^10 (CFU/mL).

Question: What about the “BACTERIAL COUNTS” value (E. coli NCTC 10418 [2]; peak 4 mg/liter, reconstituted to 3.0 mg/liter at 1 hr, maintained 0 hr (control), 49 hr) of the same substance?
Answer: The value was 9.01 ± 0.06 log ^10 (CFU/mL).

Question: What about the “BACTERIAL COUNTS” value (E. coli NCTC 10418 [2]; peak 4 mg/liter, reconstituted to 3.0 mg/liter at 1 hr, maintained 2 hr, 3 hr) of the same substance?
Answer: Its value is 0.17 ± 0.41 log ^10 (CFU/mL).

Question: And the “BACTERIAL COUNTS” value (E. coli NCTC 10418 [2]; peak 4 mg/liter, reconstituted to 3.0 mg/liter at 1 hr, maintained 2 hr, 11 hr)?
Answer: The value was 0.55 ± 0.61 log ^10 (CFU/mL).

Question: And the “BACTERIAL COUNTS” value (E. coli NCTC 10418 [2]; peak 4 mg/liter, reconstituted to 3.0 mg/liter at 1 hr, maintained 2 hr, 25 hr)?
Answer: Its value is 7.95 ± 0.54 log ^10 (CFU/mL).

Question: And the “BACTERIAL COUNTS” value (E. coli NCTC 10418 [2]; peak 4 mg/liter, reconstituted to 3.0 mg/liter at 1 hr, maintained 2 hr, 49 hr)?
Answer: Its value is 8.89 ± 0.19 log ^10 (CFU/mL).

Question: What about the “BACTERIAL COUNTS” value (E. coli NCTC 10418 [2]; peak 4 mg/liter, reconstituted to 3.0 mg/liter at 1 hr, maintained 4 hr, 3 hr) of the same substance?
Answer: The value was 0.17 ± 0.41 log ^10 (CFU/mL).

Question: What about the “BACTERIAL COUNTS” value (E. coli NCTC 10418 [2]; peak 4 mg/liter, reconstituted to 3.0 mg/liter at 1 hr, maintained 4 hr, 11 hr) of the same substance?
Answer: Its value is 0.17 ± 0.41 log ^10 (CFU/mL).

Question: And the “BACTERIAL COUNTS” value (E. coli NCTC 10418 [2]; peak 4 mg/liter, reconstituted to 3.0 mg/liter at 1 hr, maintained 4 hr, 25 hr)?
Answer: The value was 5.18 ± 4.02 log ^10 (CFU/mL).

Question: And the “BACTERIAL COUNTS” value (E. coli NCTC 10418 [2]; peak 4 mg/liter, reconstituted to 3.0 mg/liter at 1 hr, maintained 4 hr, 49 hr)?
Answer: The value was 5.99 ± 4.64 log ^10 (CFU/mL).

Question: And the “BACTERIAL COUNTS” value (E. coli NCTC 10418 [2]; peak 4 mg/liter, reconstituted to 3.0 mg/liter at 1 hr, maintained 8 hr, 3 hr)?
Answer: Its value is 0.33 ± 0.52 log ^10 (CFU/mL).

Question: And the “BACTERIAL COUNTS” value (E. coli NCTC 10418 [2]; peak 4 mg/liter, reconstituted to 3.0 mg/liter at 1 hr, maintained 8 hr, 11 hr)?
Answer: Its value is “NGD”.

Question: And the “BACTERIAL COUNTS” value (E. coli NCTC 10418 [2]; peak 4 mg/liter, reconstituted to 3.0 mg/liter at 1 hr, maintained 8 hr, 25 hr)?
Answer: Its value is “NGD”.

Question: And the “BACTERIAL COUNTS” value (E. coli NCTC 10418 [2]; peak 4 mg/liter, reconstituted to 3.0 mg/liter at 1 hr, maintained 8 hr, 49 hr)?
Answer: The value was “NGD”.

Question: What about the “BACTERIAL COUNTS” value (E. coli NCTC 10418 [2]; post-distribution peak 4 mg/liter, reconstituted at 1 hr to 0 mg/liter, 3 hr) of the same substance?
Answer: The value was 3.96 ± 0.70 log ^10 (CFU/mL).

Question: And the “BACTERIAL COUNTS” value (E. coli NCTC 10418 [2]; post-distribution peak 4 mg/liter, reconstituted at 1 hr to 0 mg/liter, 11 hr)?
Answer: The value was 9.24 ± 0.34 log ^10 (CFU/mL).

Question: What about the “BACTERIAL COUNTS” value (E. coli NCTC 10418 [2]; post-distribution peak 4 mg/liter, reconstituted at 1 hr to 0 mg/liter, 25 hr) of the same substance?
Answer: The value was 9.15 ± 0.17 log ^10 (CFU/mL).

Question: What about the “BACTERIAL COUNTS” value (E. coli NCTC 10418 [2]; post-distribution peak 4 mg/liter, reconstituted at 1 hr to 0 mg/liter, 49 hr) of the same substance?
Answer: Its value is 8.93 ± 0.12 log ^10 (CFU/mL).

Question: And the “BACTERIAL COUNTS” value (E. coli NCTC 10418 [2]; post-distribution peak 4 mg/liter, reconstituted at 1 hr to 2.0 mg/liter, 3 hr)?
Answer: Its value is 1.92 ± 1.21 log ^10 (CFU/mL).

Question: What about the “BACTERIAL COUNTS” value (E. coli NCTC 10418 [2]; post-distribution peak 4 mg/liter, reconstituted at 1 hr to 2.0 mg/liter, 11 hr) of the same substance?
Answer: Its value is 7.76 ± 1.06 log ^10 (CFU/mL).

Question: And the “BACTERIAL COUNTS” value (E. coli NCTC 10418 [2]; post-distribution peak 4 mg/liter, reconstituted at 1 hr to 2.0 mg/liter, 25 hr)?
Answer: The value was 8.69 ± 0.63 log ^10 (CFU/mL).

Question: And the “BACTERIAL COUNTS” value (E. coli NCTC 10418 [2]; post-distribution peak 4 mg/liter, reconstituted at 1 hr to 2.0 mg/liter, 49 hr)?
Answer: The value was 9.34 ± 0.27 log ^10 (CFU/mL).

Question: What about the “BACTERIAL COUNTS” value (E. coli NCTC 10418 [2]; post-distribution peak 4 mg/liter, reconstituted at 1 hr to 2.5 mg/liter, 3 hr) of the same substance?
Answer: Its value is 0.33 ± 0.52 log ^10 (CFU/mL).

Question: What about the “BACTERIAL COUNTS” value (E. coli NCTC 10418 [2]; post-distribution peak 4 mg/liter, reconstituted at 1 hr to 2.5 mg/liter, 11 hr) of the same substance?
Answer: The value was 0.33 ± 0.52 log ^10 (CFU/mL).

Question: And the “BACTERIAL COUNTS” value (E. coli NCTC 10418 [2]; post-distribution peak 4 mg/liter, reconstituted at 1 hr to 2.5 mg/liter, 25 hr)?
Answer: The value was 4.85 ± 3.82 log ^10 (CFU/mL).

Question: What about the “BACTERIAL COUNTS” value (E. coli NCTC 10418 [2]; post-distribution peak 4 mg/liter, reconstituted at 1 hr to 2.5 mg/liter, 49 hr) of the same substance?
Answer: The value was 5.98 ± 4.63 log ^10 (CFU/mL).

Question: And the “BACTERIAL COUNTS” value (E. coli NCTC 10418 [2]; post-distribution peak 4 mg/liter, reconstituted at 1 hr to 3.0 mg/liter, 3 hr)?
Answer: The value was 0.33 ± 0.52 log ^10 (CFU/mL).

Question: What about the “BACTERIAL COUNTS” value (E. coli NCTC 10418 [2]; post-distribution peak 4 mg/liter, reconstituted at 1 hr to 3.0 mg/liter, 11 hr) of the same substance?
Answer: The value was “NGD”.

Question: And the “BACTERIAL COUNTS” value (E. coli NCTC 10418 [2]; post-distribution peak 4 mg/liter, reconstituted at 1 hr to 3.0 mg/liter, 25 hr)?
Answer: Its value is “NGD”.

Question: And the “BACTERIAL COUNTS” value (E. coli NCTC 10418 [2]; post-distribution peak 4 mg/liter, reconstituted at 1 hr to 3.0 mg/liter, 49 hr)?
Answer: The value was “NGD”.
